IC50 data for 13 compounds are collected here from patent publication US10745360B2, “Quinoxaline compounds, method for preparing the same and use thereof” (Development Center for Biotechnology, priority 2014, dated 2020).

SMILES strings stand for the structures.

In experiment [1] the target is T1, B-Raf^V600E kinase (Homo sapiens, UniProt P15056, V600E).
T1 construct: purchased Upstate Biotechnology
Nature of the experiment: B-Raf V600E kinase assay ([33P] incorporation into MEK1 K97R). It is filed as biochemical. Particulars: recombinant B-Raf^V600E, 8 μM ATP, 30 min, 30° C.; read-out: IC50 ranking against B-Raf^V600E kinase. On the procedure:
(§1) Inhibition of kinase activity by a test compound disclosed herein was estimated by quantifying the amount of [^33P] incorporation of a substrate in the presence of the test compound. Standard assay conditions were 5 ng of recombinant B-Raf^V600E kinase (Upstate Biotechnology) with 500 ng MEK1 (K97R) in assay buffer (8 μM ATP, 0.5 μCi [^33P]ATP (specific activity 3000 Ci/mmol, PerkinElmer), 50 mM Tris/HCl (pH 7.5), and 1 mM EGTA, 1 mM Na3VO4, 1% 2-mercaptoethanol, 0.1% Brij 35, and 0.2 mg/ml BSA), and the test compound (diluted with 4% DMSO) or DMSO alone (as a control) in a final volume of 25 μL. Reactions were incubated at 30° C. for 30 min and stopped by adding 3% phosphoric acid, harvested onto a 96-well GF/B UniFilter (PerkinElmer) using a unifilter harvester (PerkinElmer), and counted with a TopCount microplate scintillation counter (PerkinElmer). The IC50 values of inhibitors were determined after carrying out assays at 3-fold serially diluted concentrations of each compound in duplication. The results were analyzed using linear regression software (GraphPad Prism 4; GraphPad Software Inc.).

The test system of experiment [2] is SK-MEL-2 melanoma cell with wild type B-Raf (B-Raf^wt) and NRAS^Q61R mutation. Nature of the experiment: Cell proliferation assay (CELLTITER 96), SK-MEL-2. It is filed as cell-based. The conditions noted are these: Homo sapiens; SK-MEL-2, 72 hours; given as bound; read-out: Cytotoxicity (IC50 Ranking) SK-MEL-2 (NRAS^Q61R, B-Raf^wt). On the procedure: (§2) Inhibition of cell growth by compounds was measured using CELLTITER 96® assay. The cytotoxicity of compounds was evaluated in B-Raf^V600E mutant A375 melanoma cell, B-Raf^V600E mutant COLO205 colon cancer cell, and SK-MEL-2 melanoma cell with wild type B-Raf (B-Raf^wt) and NRASQ^Q61R mutation. A375 and COLO205 cell line were cultured in DMEM containing 10% FCS and incubated at 37° C. in 5% CO2 atmosphere. SK-MEL-2 cell line was cultured in MEM containing 10% FCS and incubated at 37° C. in 5% CO2 atmosphere. A375, COLO205 and SK-MEL-2 cell were seeded into 96-well plates at 2000, 2000, and 4000 cells/well, respectively, and allowed to adhere for overnight. Then, these seeded cells were treated with increasing concentrations of the test compounds and incubated for another 72 hours. At the end of the incubation, CELLTITER 96® Aqueous One Solution Reagent (Promega) was added and incubated for 4 hours. Cell viability was determined by measuring absorbance at 490 nm using EMAX® microplate reader (Molecular Devices).
(§3) The 50% inhibitory concentration (IC50) value was calculated by plotting the percentage of growth inhibition against the concentration of compound, using GraphPad Prism5 software for curve fitting.

In experiment [3] the target is T2, B-Raf kinase (Homo sapiens, UniProt P15056).
T2 construct: purchased Upstate Biotechnology
Nature of the experiment: B-Raf kinase assay ([33P] incorporation into MEK1 K97R). It is filed as biochemical. Particulars: recombinant B-Raf, 8 μM ATP, 30 min, 30° C.; read-out: IC50 ranking against B-Raf kinase. On the procedure: Inhibition of kinase activity by a test compound disclosed herein was estimated by quantifying the amount of [^33P] incorporation of a substrate in the presence of the test compound. Standard assay conditions were 5 ng of recombinant B-Raf kinase (Upstate Biotechnology) with 500 ng MEK1(Map-erk kinase; K97R) in the assay buffer (8 μM ATP, 0.5 μCi [^33P]ATP (specific activity 3000 Ci/mmol, PerkinElmer), 50 mM Tris/HCl (pH 7.5), and 1 mM EGTA, 1 mM Na3VO4, 1% 2-mercaptoethanol, 0.1% Brij 35, and 0.2 mg/ml BSA) in a final volume of 25 μL. Reactions were incubated at 30° C. for 30 min and stopped by adding 3% phosphoric acid, harvested onto a 96-well GF/B UniFilter (PerkinElmer) using a unifilter harvester (PerkinElmer), and counted with a TopCount microplate scintillation counter (PerkinElmer). The IC50 values of inhibitors were determined after carrying out assays at 3-fold serially diluted concentrations of each compound in duplication. The results were analyzed using linear regression software (GraphPad Prism 4; GraphPad Software Inc.).

In experiment [4] the target is T3, C-Raf kinase (Homo sapiens, UniProt P04049).
T3 construct: purchased Upstate Biotechnology
Nature of the experiment: C-Raf kinase assay ([33P] incorporation into MEK1 K97R). It is filed as biochemical. The conditions noted are these: recombinant C-Raf, 8 μM ATP, 30 min, 30° C.; read-out: IC50 ranking against C-Raf kinase. On the procedure:
as §1, with “were 2” for “were 5”, “recombinant C-Raf” for “recombinant B-Raf^V600E”, “ng MEK1(K97R)” for “ng MEK1 (K97R)”

The test system of experiment [5] is B-Raf^V600E mutant COLO205 colon cancer cell. Nature of the experiment: Cell proliferation assay (CELLTITER 96), COLO205. The conditions noted are these: Homo sapiens, COLO 205; COLO205, 72 hours; read-out: Cytotoxicity (IC50 Ranking) COLO205 (B-Raf^V600E). The class given is cell-based. On the procedure: as §2, §3
For experiment [6], the system named is B-Raf^V600E mutant A375 melanoma cell. Nature of the experiment: Cell proliferation assay (CELLTITER 96), A375. The class given is cell-based. The conditions noted are these: Homo sapiens, A-375; A375, 72 hours; read-out: Cytotoxicity (IC50 Ranking) A375 (B-Raf^V600E). As for the experimental part:
as §2, §3

T3 sequence (P04049 whole entry): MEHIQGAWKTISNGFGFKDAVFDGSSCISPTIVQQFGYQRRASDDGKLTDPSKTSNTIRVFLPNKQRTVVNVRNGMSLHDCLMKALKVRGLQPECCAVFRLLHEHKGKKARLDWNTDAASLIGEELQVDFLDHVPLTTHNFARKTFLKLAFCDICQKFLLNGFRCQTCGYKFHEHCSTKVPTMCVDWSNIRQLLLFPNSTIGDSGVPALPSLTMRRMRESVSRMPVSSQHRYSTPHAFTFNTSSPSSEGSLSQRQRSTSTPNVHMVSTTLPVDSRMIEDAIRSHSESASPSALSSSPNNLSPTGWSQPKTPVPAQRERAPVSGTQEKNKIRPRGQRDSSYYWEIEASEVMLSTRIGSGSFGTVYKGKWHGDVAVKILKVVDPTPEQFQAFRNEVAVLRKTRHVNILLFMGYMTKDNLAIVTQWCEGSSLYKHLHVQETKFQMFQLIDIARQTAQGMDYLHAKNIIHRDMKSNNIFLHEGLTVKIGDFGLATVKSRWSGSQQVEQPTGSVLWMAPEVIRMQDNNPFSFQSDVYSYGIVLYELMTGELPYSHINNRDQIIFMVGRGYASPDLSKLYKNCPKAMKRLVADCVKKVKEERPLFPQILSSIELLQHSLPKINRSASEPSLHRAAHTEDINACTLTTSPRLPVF
T1 sequence (P15056 whole entry V600E): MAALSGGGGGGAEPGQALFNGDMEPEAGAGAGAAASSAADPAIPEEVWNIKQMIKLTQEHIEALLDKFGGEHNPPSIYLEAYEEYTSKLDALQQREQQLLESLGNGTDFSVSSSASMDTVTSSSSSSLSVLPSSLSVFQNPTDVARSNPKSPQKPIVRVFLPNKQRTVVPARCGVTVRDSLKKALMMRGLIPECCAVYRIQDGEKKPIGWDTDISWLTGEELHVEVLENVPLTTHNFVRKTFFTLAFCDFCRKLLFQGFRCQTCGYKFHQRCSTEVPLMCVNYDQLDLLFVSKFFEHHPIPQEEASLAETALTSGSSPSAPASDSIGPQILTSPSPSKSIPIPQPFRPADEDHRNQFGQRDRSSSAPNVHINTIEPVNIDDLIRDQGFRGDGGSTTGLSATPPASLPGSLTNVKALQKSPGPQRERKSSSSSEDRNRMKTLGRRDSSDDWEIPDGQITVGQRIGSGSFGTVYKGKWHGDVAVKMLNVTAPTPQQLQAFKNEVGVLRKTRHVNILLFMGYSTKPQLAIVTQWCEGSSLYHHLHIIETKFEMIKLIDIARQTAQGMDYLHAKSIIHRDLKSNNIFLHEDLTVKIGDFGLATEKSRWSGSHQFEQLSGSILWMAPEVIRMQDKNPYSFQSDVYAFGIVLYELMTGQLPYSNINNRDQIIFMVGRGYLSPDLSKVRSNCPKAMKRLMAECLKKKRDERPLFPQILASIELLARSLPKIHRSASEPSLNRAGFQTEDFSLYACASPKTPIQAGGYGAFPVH
T2 sequence (P15056 whole entry): as the sequence (P15056 whole entry V600E) above, with E600V counted along it

As a reminder, the IC50 is the midpoint of a concentration-inhibition curve. Take `CCCS(=O)(=O)Nc1ccc(F)c(Nc2ccc3ncc(Nc4c(F)ccc(NS(=O)(=O)CCC)c4F)nc3c2)c1F` [compound 1, N1-3-[(3-{2,6-difluoro-3-[(propylsulfonyl)amino]anilino}-6-quinoxalinyl)amino]-2,4-difluorophenyl-1-propanesulfonamide]: the IC50 in experiment [1] was less than 300 nM; in experiment [2], greater than 10000 nM; in experiment [3], less than 300 nM; in experiment [4], less than 300 nM; in experiment [5], 1000 to 10000 nM; in experiment [6], 1000 to 10000 nM.
As to `CCCS(=O)(=O)Nc1ccc(F)c(Nc2ccc3ncc(Nc4c(F)cccc4F)nc3c2)c1F` [compound 2, N1-(3-{[3-(2,6-difluoroanilino)-6-quinoxalinyl]amino}-2,4-difluorophenyl)-1-propanesulfonamide], the concentration for half-maximal inhibition (IC50) was less than 300 nM in experiment [1]; greater than 10000 nM in experiment [2]; less than 300 nM in experiment [3]; less than 300 nM in experiment [4]; 300 to 1000 nM in experiment [5]; 300 to 1000 nM in experiment [6].
In the case of `CCCS(=O)(=O)Nc1ccc(F)c(Nc2ccc3ncc(OC)nc3c2N)c1F` [compound 3, N1-{3-[(5-amino-3-methoxy-6-quinoxalinyl)amino]-2,4-difluorophenyl}-1-propanesulfonamide], the IC50 in experiment [1], in experiment [3] and in experiment [4] was 300 to 1000 nM each time.
As to `CCCS(=O)(=O)Nc1ccc(F)c(Nc2ccc3ncc(OC)nc3c2[N+](=O)[O-])c1F` [compound 4, N1-{2,4-difluoro-3-[(3-methoxy-5-nitro-6-quinoxalinyl)amino]phenyl}-1-propanesulfonamide], the IC50 is less than 300 nM in experiment [1]; greater than 10000 nM in experiment [2]; less than 300 nM in experiment [3]; less than 300 nM in experiment [4]; less than 300 nM in experiment [5]; less than 300 nM in experiment [6].
With `COc1cnc2ccc(Nc3c(F)ccc(NS(=O)(=O)CCCF)c3F)c([N+](=O)[O-])c2n1` [compound 5, N1-{2,4-difluoro-3-[(3-methoxy-5-nitro-6-quinoxalinyl)amino]phenyl}-3-fluoro-1-propanesulfonamide], the IC50 in experiment [1] is less than 300 nM; in experiment [2] it was greater than 10000 nM; in experiment [3], less than 300 nM; in experiment [4] it was less than 300 nM; in experiment [5], less than 300 nM; in experiment [6] it was less than 300 nM.
With `CCCS(=O)(=O)Nc1ccc(F)c(Nc2ccc3ncc(OCCN4CCOCC4)nc3c2[N+](=O)[O-])c1F` [compound 6, N1-(2,4-difluoro-3-{[3-(2-morpholinoethoxy)-5-nitro-6-quinoxalinyl]amino}phenyl)-1-propanesulfonamide], the IC50 in experiment [1] is less than 300 nM; in experiment [2] it was greater than 10000 nM; in experiment [3], less than 300 nM; in experiment [4] it was less than 300 nM; in experiment [5] it was less than 300 nM; in experiment [6], less than 300 nM.
On to `CCCS(=O)(=O)Nc1ccc(F)c(Nc2ccc3ncc(OCCOC)nc3c2[N+](=O)[O-])c1F` [compound 7, N1-(2,4-difluoro-3-[3-(2-methoxyethoxy)-5-nitro-6-quinoxalinyl]aminophenyl)-1-propanesulfonamide], for which the IC50 in experiment [1] was less than 300 nM; in experiment [2] it was greater than 10000 nM; in experiment [3] it was less than 300 nM; in experiment [4], less than 300 nM; in experiment [5] it was less than 300 nM; in experiment [6] it was less than 300 nM.
`CCCS(=O)(=O)Nc1ccc(F)c(Nc2ccc3ncc(NC(=O)C4CC4)nc3c2)c1F` [compound 8, N1-(7-{2,6-difluoro-3-[(propylsulfonyl)amino]anilino}-2-quinoxalinyl)-1-cyclopropanecarboxamide]: the IC50 in experiment [1] was 300 to 1000 nM; in experiment [2], greater than 10000 nM; in experiment [3] it was 300 to 1000 nM; in experiment [4], 300 to 1000 nM; in experiment [5], 1000 to 10000 nM; in experiment [6], 1000 to 10000 nM.
Consider `CCCS(=O)(=O)Nc1ccc(F)c(Nc2ccc3ncc(OCCN(C)C)nc3c2[N+](=O)[O-])c1F` [compound 9, N1-[3-({3-[2-(dimethylamino)ethoxy]-5-nitro-6-quinoxalinyl}amino)-2,4-difluorophenyl]-1-propanesulfonamide], for which the IC50 in experiment [1] is less than 300 nM; in experiment [2], greater than 10000 nM; in experiment [3] it was less than 300 nM; in experiment [4] it was less than 300 nM; in experiment [5] it was less than 300 nM; in experiment [6] it was less than 300 nM.
Turning to `CCCS(=O)(=O)Nc1ccc(F)c(Nc2ccc3ncc(OC)nc3c2C#N)c1F` [compound 10, N1-{3-[(5-cyano-3-methoxy-6-quinoxalinyl)amino]-2,4-difluorophenyl}-1-propanesulfonamide], the IC50 was less than 300 nM in experiment [1]; greater than 10000 nM in experiment [2]; less than 300 nM in experiment [3]; less than 300 nM in experiment [4]; less than 300 nM in experiment [5]; less than 300 nM in experiment [6].
Turning to `CCCS(=O)(=O)Nc1ccc(F)c(Nc2ccc3ncc(Nc4ccccc4F)nc3c2)c1F` [compound 11, N1-(2,4-difluoro-3-{[3-(2-fluoroanilino)-6-quinoxalinyl]amino}phenyl)-1-propanesulfonamide], the IC50 in experiment [1] was less than 300 nM; in experiment [2], greater than 10000 nM; in experiment [3], less than 300 nM; in experiment [4], less than 300 nM; in experiment [5] it was 1000 to 10000 nM; in experiment [6] it was 300 to 1000 nM.
On to `CCCS(=O)(=O)Nc1ccc(F)c(Nc2cc3nc(OC)cnc3cc2C)c1F` [compound 32, N-(2,4-difluoro-3-(3-methoxy-7-methylquinoxalin-6-ylamino)phenyl)propane-1-sulfonamide], for which, in experiment [3], the IC50 fell in the range of 1000 to 10000 nM.
Regarding `CCCS(=O)(=O)Nc1cc(Nc2ccc3ncc(OC)nc3c2C#N)ccc1C` [compound 45, N-(5-(5-cyano-3-methoxyquinoxalin-6-ylamino)-2-methylphenyl)propane-1-sulfonamide], the IC50 in experiment [1], in experiment [3] and in experiment [4] was 1000 to 10000 nM throughout.
